Assay results taken from PubChem BioAssay (NCI).
Several values for one entry are separate records, joined by “and”; a condition that tells them apart may be missing. Identical values can stand only once.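 All cell lines were grown in 96-well plates and treated with compound for 48 hours. GI50: concentration for 50% inhibition of growth. At the TGI there is no net growth.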

Key:
Test in all cases: growth of human tumour cells (NCI), 48 h
OVCAR-5 ovarian = system: OVCAR-5 ovarian
NCI-H23 lung = system: NCI-H23 lung
LOX IMVI melanoma = system: LOX IMVI melanoma
COLO 205 colon = system: COLO 205 colon
MALME-3M melanoma = system: MALME-3M melanoma
NCI/ADR-RES ovarian = system: NCI/ADR-RES ovarian
CAKI-1 renal = system: CAKI-1 renal
SNB-75 CNS = system: SNB-75 CNS
SK-MEL-28 melanoma = system: SK-MEL-28 melanoma
NCI-H522 lung = system: NCI-H522 lung

SMILES	GI50 (OVCAR-5 ovarian) [µM]	TGI (OVCAR-5 ovarian)	TGI (NCI-H23 lung)	GI50 (LOX IMVI melanoma)	TGI (LOX IMVI melanoma)	GI50 (COLO 205 colon)	TGI (COLO 205 colon)	GI50 (MALME-3M melanoma) [µM]	TGI (MALME-3M melanoma)	GI50 (NCI/ADR-RES ovarian)	TGI (NCI/ADR-RES ovarian)	GI50 (CAKI-1 renal) [µM]	TGI (CAKI-1 renal)	GI50 (SNB-75 CNS)	TGI (SNB-75 CNS) [µM]	GI50 (SK-MEL-28 melanoma)	TGI (SK-MEL-28 melanoma)	GI50 (NCI-H522 lung)	TGI (NCI-H522 lung)	GI50 (NCI-H23 lung) [µM]
NC(Cc1c[nH]c2cccc(F)c12)C(=O)O (stereo not given)	1280	> 4500 µM	3180 µM	51.6 µM and 211 µM	982 µM	43.6 µM and 302 µM	944 µM	2600	> 4500 µM	63.9 µM and 418 µM	2360 µM	1080	> 4500 µM	77.2 µM and 726 µM	2790	74.7 µM and 360 µM	> 4500 µM	27.7 µM and 176 µM	74.5 µM and 729 µM	
CCOC(=O)CCSC1=CC(=O)c2nc3ccccc3c3ccnc1c23	27.5	91 µM	43.3 µM	27 µM	> 100 µM	24.9 µM	> 100 µM	17.5	35.4 µM	32.8 µM	> 100 µM	16.3	31.9 µM	39 µM	> 100	20.2 µM	41.1 µM	17.4 µM	43 µM	16.3
C/C(=N\NC(=S)N1CCN(c2ccccn2)CC1)c1cccc2cccnc12		> 60.1 µM	> 100 µM		> 100 µM		> 46.1 µM		> 100 µM		15.4 µM		> 100 µM		> 70.2		> 100 µM		9.63 µM	
CC[Si](CC)(CC)OC1[C@@H](O[Si](CC)(CC)CC)[C@@H](CNC(=O)NC)O[C@H]1n1cnc2c(NC(=O)Nc3ccccc3)ncnc21 (stereo not given in full)	4.06	62.1 µM	> 100 µM	2.61 µM	7.85 µM	2.09 µM	3.62 µM	2.39	6.67 µM	3.96 µM	> 100 µM	2.76	12.2 µM	3.95 µM	> 100	4.93 µM	> 100 µM	3.83 µM	78.5 µM	3.64
C[C@@H](Oc1cc(-c2cnn(C3CCNCC3)c2)cnc1N)c1c(Cl)cc(F)cc1Cl	2	10.1 µM	14.8 µM	1.37 µM	3.21 µM	0.857 µM	2.45 µM	1.27	2.94 µM	5.81 µM	20.1 µM	3.17	12.6 µM	1.65 µM	4.38	1.56 µM	3.17 µM	1.79 µM	5.73 µM	1.93
Cc1cc(OCc2nn(CN3CCN(C)CC3)c(=S)n2/N=C/c2ccc(F)cc2)ccc1Cl	25	49.5 µM	31.1 µM	18.3 µM	32.7 µM	12.6 µM	25.7 µM	22.8	43.4 µM	18.8 µM	36.1 µM	20.1	40.9 µM	13.4 µM	32.2	15.2 µM	31.5 µM	15.7 µM	30.8 µM	16.9
COc1cc(/C=C/c2ccnc3ccccc23)cc(OC)c1OC		95 µM and > 100 µM	6.92 µM and 9.64 µM	5.25 µM	29.3 µM and > 100 µM	3.26 µM	7.36 µM and 15.1 µM	3.88	42.5 µM and > 100 µM	1.25 µM	9.32 µM and 4.98 µM	1.89	20.8 µM and 26.8 µM	1.7 µM	5.4	4.06 µM	37.2 µM and > 100 µM		46.8 µM and 7.39 µM	
O=C(O)c1[nH]c2c([N+](=O)[O-])cc([N+](=O)[O-])cc2c1C(=O)O		> 100 µM	> 100 µM		> 100 µM		> 100 µM		> 100 µM		> 100 µM		> 100 µM		> 100		> 100 µM		> 100 µM	
c1ccc(/C(=N\Nc2nc3ccccc3s2)c2ccccn2)cc1		> 51.4 µM	> 100 µM		42.4 µM		16.9 µM		34.4 µM		> 100 µM		> 100 µM		> 100		> 100 µM		36.7 µM	
OCC1OC(n2cnc3c(NCc4ccccc4O)ncnc32)C(O)C1O (stereo not given)	1.15	> 67.1 µM	4.46 µM	0.0695 µM	3.62 µM	0.524 µM	> 24.4 µM	2.99	> 75.5 µM	0.435 µM	24.4 µM	0.349	9.43 µM	1.74 µM	18.3	4.15 µM	> 100 µM	0.0939 µM	1.54 µM	0.457
O=C(COc1cccc(/C=C2\Oc3ccc4ccccc4c3C2=O)c1)c1ccc([N+](=O)[O-])cc1	27.3	> 100 µM	80.8 µM	7.5 µM	20.5 µM	21.8 µM	> 100 µM	14.7	43 µM	> 100 µM	> 100 µM	45.9	> 100 µM	18.9 µM	53	48.4 µM	> 100 µM	11.2 µM	29.3 µM	21
CC(=O)/C=C/c1ccc(N(CCO)Cc2ccc(C(C)(C)C)cc2)cc1	63.3	211 µM	235 µM	28.3 µM	134 µM	29.3 µM	129 µM	65.3	208 µM	39.1 µM	174 µM			54.7 µM	200	58.8 µM	201 µM	84.8 µM	237 µM	63.7
CCCCC[C@H]1C/C=C2/C(=O)C(Cl)=C[C@@H]2C/C=C\CCCC(=O)O1	0.649	1.4 µM	1.18 µM	0.126 µM	0.449 µM	0.438 µM	0.975 µM	0.573	1.53 µM	0.317 µM	1.64 µM			1.76 µM	6.09	0.472 µM	1.12 µM	0.335 µM	0.755 µM	0.493
CC(=N\O)/C(C)=N/O.CC(=N\O)/C(C)=N/O.[Fe].[NH2-].c1c[nH]cn1	> 100	> 100 µM		3.17 µM	13.2 µM	> 100 µM	> 100 µM	> 100	> 100 µM	> 100 µM	> 100 µM	> 100	> 100 µM	> 100 µM	> 100	> 100 µM	> 100 µM	> 100 µM	> 100 µM	
